Where two headings read alike, the source gives them in different places.
Experiments:
[1] = parameters: method as in doi:10.1111/jfpp.16096; settings: rosehip infusions by TT, HPP and PEF, depending on the treatment; cited from earlier work
[2] = parameters: method as in PMID 31100382; settings: rats; oral administration; after one hour; cited from earlier work
Caco-2 cells = test: Transepithelial transportation of catechin from digests across the Caco-2 monolayer; type: in vitro ADME, Human; settings: 4 h; digests diluted 1/5
Method: The in vitro gastrointestinal digestion was simulated regarding the procedures of Ozkan et al. and Sessa et al., with minor modifications. This assay involves two sequential stages: gastric digestion and bile salt/pancreatin digestion. For the gastric digestion, the samples containing 1.3 mg/mL final concentration of pepsin at pH 2 were placed in a water bath (GFL 1092, Burgwedel, Germany) at 37 °C and 100 rpm for a 2 h incubation period. To simulate intestinal digestion, gastric chyme was mixed with 0.175 mg/mL pancreatin and 1.10 mg/mL bile salts at pH 6.5, and then placed in a water bath at 37 °C and 100 rpm for 2 h incubation. […]
The transport trial was carried out based on Wu et al.. […] TEER values of the cells were determined before the experiment, after the last sampling and 24 h after the incubation period. […]
The quantification of phenolic compounds in rosehip infusions was conducted by UPLC based on Ozkan et al., with minor changes. Digests obtained from apical and basolateral sides were analyzed by a Waters Acquity UPLC system (Waters Co., Milford, MA, USA) combined with a diode array detector (DAD). […] Catechin concentration was determined by using its authentic standard. […] The results were expressed as mg catechin per 100 g dw (dry weight) of rosehip. […]

[3] = parameters: method as in earlier work; settings: mice, cited from earlier work
[4] = parameters: method as in PMID 31100382; settings: ex vivo; after one hour; cited from earlier work
[5] = cited from earlier work
[6] = parameters: method as in PMID 24191680; settings: sour cherry fruit and nectar samples, depending on ingredients and processing; cited from earlier work
cellular monolayer = tested on: cellular monolayer; parameters: method as in doi:10.1021/acsomega.8b03499; settings: sweet cherry phenolics; cited from earlier work
[7] = parameters: method as in doi:10.1016/j.jff.2018.10.025; settings: rats; after 6 h; cited from earlier work
[8] = parameters: method as in Rodríguez-Roque et al. [11]; settings: fruit juice blends, traditional thermal treatment; ref Rodríguez-Roque et al. [11]; cited from earlier work

O.Oc1cc(O)c2c(c1)O[C@H](c1ccc(O)c(O)c1)[C@@H](O)C2 [catechin, Catechin]
catechin lost after gastrointestinal digestion [1]: 51.8–61.0% | maximum concentration in plasma [2]: 120 ± 3.97 ng/mL | Apical Recovery (%) of catechin (Caco-2 cells): 68–69% | maximum plasma catechin level ([3]; sour mangosteen rind): 1.10 µg/mL | permeation across the intestinal tissue [4]: 12.5 µg

O=C(O[C@@H]1Cc2c(O)cc(O)cc2O[C@@H]1c1ccc(O)c(O)c1)c1cc(O)c(O)c(O)c1 [epicatechin gallate]
amounts in plasma with chocolate food matrix ([5]; five healthy 22-year-old women): reduced | form detected in plasma ([5]; five healthy 22-year-old women): aglycon form

Oc1cc(O)c2c(c1)O[C@H](c1ccc(O)c(O)c1)[C@H](O)C2 [epicatechin]
basolateral side recovery [6]: 1.1–3.8% | amounts in plasma with chocolate food matrix ([5]; five healthy 22-year-old women): no alteration | form detected in plasma ([5]; five healthy 22-year-old women): conjugated metabolites | maximum plasma epicatechin concentration ([3]; sour mangosteen peel): 62.03 µg/mL | quantity that crossed the cell monolayer (cellular monolayer): 0.37%

O=C(O[C@@H]1Cc2c(O)cc(O)cc2O[C@@H]1c1cc(O)c(O)c(O)c1)c1cc(O)c(O)c(O)c1 [epigallocatechin gallate]
amounts in plasma with chocolate food matrix ([5]; five healthy 22-year-old women): reduced | form detected in plasma ([5]; five healthy 22-year-old women): aglycon form

Oc1cc(O)c2c(c1)O[C@H](c1cc(O)c(O)c(O)c1)[C@H](O)C2 [epigallocatechin]
amounts in plasma with chocolate food matrix ([5]; in vivo): no alteration | form detected in plasma ([5]; in vivo): conjugated metabolites

Oc1cc(O)c2c(c1)OC(c1ccc(O)c(O)c1)C(O)C2 (stereo not drawn) [free catechin]
bioavailability (plasma catechin values) [7]: 0.241 µM·h

O=C1O[C@H]([C@@H](O)CO)C(O)=C1O [vitamin C]
bioaccessibility [8]: 11.1%

Source: publication PMC9265957, “Bioavailability of Rosehip (Rosa canina L.) Infusion Phenolics Prepared by Thermal, Pulsed Electric Field and High Pressure Processing” (Foods, 2022)
